# Experimental data published in patent EP4168403B1 (priority 2020, dated 2021).
# “Also recorded” adds a separate entry of the source.
# Tests used:
# [1] = Prediction of blood-brain barrier penetration (PAMPA); type: in vitro ADME; conditions: for CNS: PAMPA prediction of ability to cross the blood-brain barrier
# Procedure: To predict passive blood-brain penetration of novel compounds modification of the parallel artificial membrane permeation (PAMPA) assay has been used based on reported protocol^38, 39. The filter membrane of the donor plate was coated with PBL (Polar Brain Lipid, Avanti, USA) in dodecane (4 µl of 20 mg/ml PBL in dodecane) and the acceptor well was filled with 300 µl of PBS pH 7.4 buffer (VD). Tested compounds were dissolved first in DMSO (0.5% (V/V) final) and that diluted with PBS pH 7.4 to reach the final concentration 50 µM in the donor well. 300 µl of the donor solution was added to the donor wells (VA) and the donor filter plate was carefully put on the acceptor plate so that coated membrane was "in touch" with both donor solution and acceptor buffer. Test compound diffused from the donor well through the lipid membrane (Area=0.28cm^2) to the acceptor well. The concentration of the drug in both donor and the acceptor wells was assessed after 3, 4, 5 and 6 hours of incubation in quadruplicate using the UV plate reader Synergy HT (Biotek, USA) at the maximum absorption wavelength and the standard curve for each compound. […]
# [2] = molecular target: T1, human recombinant butyrylcholinesterase (hBuChE; EC 3.1.1.8) (Homo sapiens, UniProt P06276); assay: Cholinesterase inhibition in vitro assay (modified Ellman's method), BuChE; type: biochemical; conditions: pH 7.4, 37 °C, mean ± SEM, read-out: BChE (IC50 µM)
# T1 construct: purchased Sigma-Aldrich (Prague, Czech Republic)
# T1 sequence (P06276 29-602): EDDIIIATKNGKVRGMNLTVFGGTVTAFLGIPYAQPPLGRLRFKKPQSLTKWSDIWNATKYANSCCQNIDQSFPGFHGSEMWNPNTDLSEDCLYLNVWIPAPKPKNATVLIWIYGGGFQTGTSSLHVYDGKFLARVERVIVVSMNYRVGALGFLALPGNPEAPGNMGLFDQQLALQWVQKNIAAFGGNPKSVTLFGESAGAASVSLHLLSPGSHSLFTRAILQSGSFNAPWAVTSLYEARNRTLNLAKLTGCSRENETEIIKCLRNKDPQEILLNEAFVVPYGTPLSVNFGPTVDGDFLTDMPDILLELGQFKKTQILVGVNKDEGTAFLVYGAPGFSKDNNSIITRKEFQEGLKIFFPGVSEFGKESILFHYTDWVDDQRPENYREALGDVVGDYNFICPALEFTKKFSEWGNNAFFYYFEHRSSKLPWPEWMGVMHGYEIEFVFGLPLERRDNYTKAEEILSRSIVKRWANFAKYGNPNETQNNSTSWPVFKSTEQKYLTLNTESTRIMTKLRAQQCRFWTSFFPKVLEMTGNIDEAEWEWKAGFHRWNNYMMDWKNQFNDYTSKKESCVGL
# Procedure: The AChE and BuChE inhibitory activity of the tested compounds was determined using a modified Ellman's method^31, 32.Human red-blood cell acetylcholinesterase (hAChE; EC 3.1.1.7), and human recombinant butyrylcholinesterase (hBuChE; EC 3.1.1.8), 5,5'-dithiobis(2-nitrobenzoic acid) (Ellman's reagent, DTNB), phosphate buffer (PB, pH 7.4), acetylthiocholine (ATC), and butyrylthiocholine (BTC), were purchased from Sigma-Aldrich (Prague, Czech Republic). Nunc polystyrene 96-well microplates with flat-bottom shape (ThermoFisher Scientific, USA) were used for the measurement and all the assay were carried out in 0.1 M KH2PO4/K2HPO4 buffer, pH 7.4. Enzyme solution was prepared at activity 2.0 units/mL in 2 mL aliquots. The assay mixture (100 µL) consisted of 40 µL of 0.1 M phosphate buffer (pH 7.4), 20 µL of 0.01 M DTNB, 10 µL of enzyme, and 20 µL of 0.01 M substrate (ATC iodide solution). Tested compounds were dissolved first in methanol (BIGI 23 in DMSO) and then further diluted by assay buffer to the final concentration. […]. […] Enzyme with the inhibitor was preincubated for 5 min in the assay mixture and then the reaction was started by addition of 20 µL of substrate (ATC for AChE, BTC for BuChE). The enzyme activity was determined by measuring the increase in absorbance at 412 nm at 37 °C at 2 min intervals using a Multi-mode microplate reader Synergy 2 (Vermont, USA). Each concentration was assayed in triplicate. The obtained data were used to compute the percentage inhibition (I; Equation 1): I = 1−(ΔAi)/(ΔA0) [%] [formula] ΔAi indicates the absorbance change provided by cholinesterase exposed to AChE inhibitors and ΔA0 indicates absorbance change caused by intact cholinesterase (phosphate buffer was used instead of AChE inhibitor solution). […] Calculations were performed using software Microsoft Excel (Redmont, WA, USA) and GraphPad Prism version 5.02 for Windows, GraphPad Software, San Diego, CA, USA.
# [3] = system: voltage-gated Ca^2+ channels (VGCC); assay: Calcium channel antagonist assay (K+-evoked cytosolic Ca2+, Fluo-4); type: cell-based; conditions: SH-SY5Y cells, K+ 70 mM, mean ± SEM, read-out: IC50 (µM) Calcium channels blockade
# Procedure: The cytosolic Ca^2+ has been measured in SH-SY5Y cells. SH-SY5Y cells were maintained similarly to what was previously described^30. Free cytosolic Ca^2+ was measured using the fluorescent Ca^2+ indicator Fluo-4/AM (Fluo-4 acetomethoxyester). SH-SY5Y cells were seeded onto 96-well black plates at a density of 10^5 cells per well, achieving confluence after 48 h. Cells were washed with Krebs-Hepes solution (KH, in mM: 144 NaCl, 5.9 KCl, 1.2 MgCl2, 2 CaCl2, 11 D-glucose, 10 HEPES, pH 7.4). Cells were loaded with 10 µM Fluo-4/AM and 0.2% pluronic acid in KH and incubated for 45 min at 37 °C in the dark. Then, cells were washed twice with KH to remove the excess of probe. Tested compounds were incubated 10 min before K+ 70 mM was applied to evoke the increment of cytosolic Ca^2+. To normalize Fluo-4 signals, Triton X-100 (5%) and 1 M MnCl2 were applied to register both maximal and minimal fluorescence, respectively. The experiments were analyzed at excitation and emission wavelengths of 485 and 520 nm, respectively, and fluorescence was measured in a fluorescence microplate reader (FLUOstar Optima, BMG, Germany). Data were calculated as a percentage of Fmax - Fmin.
# The blocking effect of the depolarization-induced Ca^2+ uptake was investigated in SH-SY5Y neuroblastoma cells stimulated with an extracellular concentration of K+ 70 mM, which induces the cell Ca^2+ levels elevation by opening voltage-gated Ca^2+ channels (VGCC), monitored with the Ca^2+-sensitive fluorescent dye Fluo-4. Nifedipine was used as positive standard.
# [4] = Oxygen Radical Absorbance Capacity (ORAC-FL) assay; conditions: Trolox equivalents (µmol of Trolox equivalent/µmol of compound)
# Procedure: The radical scavenging capacity of the TFAHs was determined by the ORAC-FL method using fluorescein as a fluorescent probe^33,34. (±)-6-Hydroxy-2,5,7,8-tetramethylchromane-2-carboxylic acid (Trolox), fluorescein (FL) and 2,2'-azobis(amidinopropane) dihydrochloride (AAPH) were purchased from Sigma-Aldrich. A Varioskan Flash plate reader with built-in injectors (Thermo Scientific) was used. The reaction was carried out at 37 °C in 75 mM phosphate buffer (pH= 7.4), and the final volume reaction mixture was 200 µL. The tested compounds and Trolox standard were dissolved in DMSO to 10 mM and further diluted in 75 mM phosphate buffer (pH= 7.4). The final concentrations were 0.1-1 µM for the tested compounds and 1-8 µM for Trolox standard. The blank was composed of 120 µL of FL, 60 µL of AAPH and 20 µL of phosphate buffer (pH=7.4) and was added in each assay.
# The net AUC corresponding to a sample was calculated as follows: Net AUC = AUCantioxidant −AUCblank . [formula]
# Regression equations were calculated by plotting the net AUC against the antioxidant concentration. The ORAC value was obtained by dividing the slope of the latter curve between the slope of the Trolox curve obtained in the same assay. Final ORAC values were expressed as µmol of Trolox equivalent/µmol of TFAH.
SMILES,CNS [1],"Papp at 50 µM ([1]; PAMPA, PBS pH 7.4, 50 µM in donor well, read-out: Pe ± SEM)",IC50 [2],IC50 [3],ORAC [4]
"CCOC(=O)C1=C(C)N(CCC2CCN(Cc3ccccc3)CC2)C(=O)NC1c1coc2c(Cl)cc(Cl)cc2c1=O (racemic) [BIGI-3h, ethyl 1-(2-(1-benzylpiperidin-4-yl)ethyl)-4-(6,8-dichloro-4-oxo-4H-chromen-3-yl)-6-methyl-2-oxo-1,2,3,4-tetrahydropyrimidine-5-carboxylate]",best ability to cross the BBB; also recorded: CNS (+),4 ± 0.3 ×10⁻⁶ cm/s,17.3 ± 0.9 µM,1.4 ± 0.4 µM,3.65± 0.07 TE
"CCOC(=O)C1=C(C)N(CCC2CCN(Cc3ccccc3)CC2)C(=O)NC1c1coc2ccc(Br)cc2c1=O (stereo not shown) [BIGI-3e, ethyl 1-(2-(1-benzylpiperidin-4-yl)ethyl)-4-(6-bromo-4-oxo-4H-chromen-3-yl)-6-methyl-2-oxo-1,2,3,4-tetrahydropyrimidine-5-carboxylate]",CNS (+/-),–,8.4 ± 0.34 µM,1.9 ± 0.6 µM,3.26 ± 0.12 TE
"CCOC(=O)C1=C(C)N(CCCC2CCN(Cc3ccccc3)CC2)C(=O)NC1c1coc2cc(CC)ccc2c1=O (stereo not shown) [BIGI-3k, ethyl 1-(3-(1-benzylpiperidin-4-yl)propyl)-4-(7-ethyl-4-oxo-4H-chromen-3-yl)-6-methyl-2-oxo-1,2,3,4-tetrahydropyrimidine-5-carboxylate]",CNS (-),–,2.95 µM,1.4 ± 0.5 µM,2.75 ± 0.16 TE
